Patent US20160287553A1, “TRANSLATION INHIBITORS IN HIGH-DOSE CHEMO- AND/OR HIGH-DOSE RADIOTHERAPY” (DEUTSCHES KREBSFORSCHUNGSZENTRUM, priority 2013, published 2016)
Entries after “also recorded” stand apart in the source; their conditions may differ.

Tests used:
Peripheral blood T cells = experiment: Teniposide-, Doxorubicin- and Bleomycin-induced apoptotic cell death in T cells; type: cell-based, human; conditions: Roc-A 75 nM; increasing doses of the drugs (FIG. 1b)
Description: (§1) DNA fragmentation was determined by FACS.
The radioprotective effect mediated by Roc-A was the highest when cells were treated with Roc-A 1 h before radiation of cells (FIG. 1d). However, when cells were treated 4 h after radiation, the radioprotective effect was still higher than 50% (FIG. 1d).

[1] = tested on: SCLC-21H cells (small cell lung cancer), p53 mutated; experiment: Etoposide-induced cell death in SCLC-21H; type: cell-based, human; conditions: SCLC-21H (FIG. 5a)
Description: as §1
(§2) Since Roc-A-mediated protection of non-malignant cells from DNA-damage-induced cell death is largely p53-dependent, we predicted that Roc-A would not protect cancer cells which have non-functional p53. […] 1997; 19: 243-253), Reh (Zhou et al, loc cit.), SKW6.4 (Barbarotto et al., J Cell Biochem. 2008; 104: 595-605) and NCI-H209 (Fujita et al. Int J Oncol. 1999; 15: 927-934) which have a WT p53 protein.

[2] = tested on: Hut-78 (T cell lymphoma), p53 mutated; experiment: Etoposide-induced cell death in Hut-78; type: cell-based, human; conditions: Hut-78 (FIG. 5a)
Description: as §1, §2

cardiomyocytes = experiment: Etoposide-induced apoptosis in cardiomyocytes; type: cell-based, human; conditions: cardiomyocytes (FIG. 1c)
Description: as §1
(§3) Next, we asked whether Roc-A could also protect other normal primary cells from DNA damage-induced toxicity. To address this question, we examined the protective effect of Roc-A on Etoposide-treated human peripheral blood B cells, NK cells, neutrophils, cardiomyocytes and murine hematopoietic stem and progenitor cells (HSPCs).

[3] = tested on: murine hematopoietic stem and progenitor cells (HSPCs); experiment: Etoposide-induced apoptosis in hematopoietic stem and progenitor cells; type: cell-based, mouse; conditions: HSPCs (FIG. 1c)
Description: as §1
To perform lineage depletion, bone marrow cells were incubated on ice for 40 minutes with rat monoclonal antibodies against common epitopes expressed on mature blood and bone marrow cells (CD11b (M1/70), Gr-1 (RB6.8C5), CD4 (GK1.5), CD8a (53.6.7), Ter119 (Ter119) and B220 (RA3-6B2)). Subsequently, cells were washed and incubated for 15 minutes on ice with anti-rat IgG-coated Dynabeads (4.5 μm supermagnetic polystyrene beads, Invitrogen), 1 ml of beads per 3×10^8 bone marrow cells. Cells expressing lineage markers were depleted using a magnet and the remaining lineage-negative cells were isolated and washed. To provide optimal conditions for HSPCs in downstream experiments lineage-negative hematopoietic stem and progenitor-enriched cells were cultured in StemPro®-34 serum-free medium (Invitrogen, Darmstadt, Germany) supplemented with nutrient supplement (Invitrogen, Darmstadt, Germany) as well as recombinant TPO (50 ng/ml, (Peprotech, Hamburg, Germany)), SCF (50 ng/ml, (Peprotech, Hamburg, Germany)) and Flt3-ligand (50 ng/ml, (Peprotech, Hamburg, Germany)).
Next, we asked whether Roc-A could also protect other normal primary cells from DNA damage-induced toxicity. […]

[4] = tested on: SKW6.4 (B cell leukemia), WT p53; experiment: Etoposide-induced cell death in SKW6.4; type: cell-based, human; conditions: SKW6.4 (FIG. 5b)
Description: as §1, §2

non-malignant cells = experiment: Fold change in cell death on raising the Etoposide dose, non-malignant cells (FIG. 9a-b); type: cell-based; conditions: 75 nM Roc-A in parallel to Etoposide, 6.25 μM to 50 μM, 24 h
Description: (a) Cells from (b) were grouped into malignant and non-malignant cells. Shown are means of three independent experiments. Abbreviations; HSPCs=hematopoietic stem and progenitor cells. (c-d) Malignant and non-malignant cells were exposed to ionizing radiation (IR) in the presence of 75 nM Roc-A or solvent (DMSO) and cell death was determined after 24 h by DNA fragmentation. Depicted is the fold-change in cell death that was measured when doses of IR were increased from 2 Gy to 10 Gy. (c) Cells from (d) were grouped into malignant and non-malignant cells. Shown are means of three independent experiments.
as §1
Roc-A specifically prevents the cause of chemotherapeutic and radiation-induced side-effects, i.e., the death of healthy cells. […] Consequently, high-dose therapy is not possible, as side effects would be too high.

neutrophils = experiment: Etoposide-induced apoptosis in neutrophils; type: cell-based, human; conditions: neutrophils (FIG. 1c)
Description: as §1, §3

p53-knockdown T cells = experiment: Etoposide-induced cell death in p53 siRNA knock-down T cells; type: cell-based, human; conditions: Etoposide 50 μM, Roc-A 75 nM, 24 h (FIG. 4a)
Description: as §1
siRNAs specific for p53 mRNA was 5′-[…]tt-3′ (SEQ ID NO: 1; [Applied Biosystems, Darmstadt, Germany]). 1.5×10^7 human peripheral blood T cells were transfected with 2 μM of p53 siRNA or of scrambled siRNA (Qiagen, Hilden, Germany) using Amaxa Human T Cell Nucleofector Kit (Lonza, Basel, Switzerland) according to the manufacturer's instructions. The Amaxa Nucleofector program U-014 was used for transfection.
(§4) To further investigate the role of p53 in Roc-A-mediated protection of T cells against DNA damage-induced apoptosis, we performed a p53 knock-down experiment using a siRNA approach (FIG. 4a, upper panel). […] Therefore, we examined the effect of Roc-A on p53 knock-out (KO) cells.

[5] = tested on: Splenocytes from p53+/+ mice; experiment: Etoposide-induced cell death in p53 wild-type splenocytes; type: cell-based, mouse; conditions: p53-WT splenocytes, 50 μM Etoposide, 75 nM Roc-A (FIG. 4b)
Description: as §1
P53^−/− C57B1/6 mice (B6.Trp53tm1Tyj) were kindly provided by Liu H-K (German Cancer Research Center, Heidelberg, Germany). Spleens of 8-12 week old p53^−/−, and p53^+/+ mice were isolated in parallel, minced and incubated for 30 min in RPMI-1640 medium supplemented with DNase I (50 U/ml) and Collagenase IV (1 mg/ml) at 37° C. and 5% CO2. Splenocytes were filtered by […] cell strainer, washed twice with ice-cold wash buffer (PBS, 0.5% FCS, 2 mM EDTA) and resuspended in Oxford medium (RPMI 1640, 10% FCS, 100 μg/ml Penicillin, 100 μg/ml Streptamycin, 10 mM Hepes, 50 μM β-Mercaptoethanol, 2 mM L-glutamine, 1 mM sodium pyruvate, 100 μM non-essential amino acids) at a concentration of 2×10^6 cells/ml.
as §4

ERK = conditions: Polier et al., op. cit.; cited from earlier work
[6] = tested on: HL-60 (promyelocytic leukemia), p53-deficient; experiment: Etoposide-induced cell death in HL-60; type: cell-based, human; conditions: HL-60 (FIG. 5a)
Description: as §1, §2

γ-H2AX = type: cell-based; conditions: Roc-A 75 nM, T cells (FIG. 2a-b)
Description: DNA damage was determined by quantification of γ-H2AX foci formation and by alkaline single-cell gel electrophoresis assay (comet assay). For γ-H2AX staining, cells were treated as indicated, fixed in 3% formaldehyde and permeabilized in 90% methanol. Following storage at −20° C. overnight, cells were incubated with mouse serum to block unspecific binding and stained with antibody directed against γ-H2AX (AlexaFluor 488-coupled, 2F3 [BioLegend, Fell, Germany]), or with isotype control antibody (AlexaFluor 488-coupled [BioLegend, Fell, Germany]). The amount of γ-H2AX foci formation was determined by FACS measurement. […] Nuclei were stained with DAPI mounting medium (Dianova, Hamburg, Germany). Comet assays were carried out as previously described (Greve et al., PloS one. 2012; 7: e47185). Briefly, electrophoresis of cellular genomic DNA was performed under alkaline conditions at 4° C. The amount of DNA damage was measured by “Olive Tail Moment”. Analysis of cellular DNA damage was carried out by fluorescence microscopy, using a fully automated cell scanning system Metafer-4 (Metasystems, Altlutβheim, Germany).
To address this question, we determined the level of the DNA-damage marker γ-H2AX, which is generated around the site of a DNA double-strand break (Rogakou et al., J Biol Chem. 1998; 273: 5858-5868).

[7] = tested on: EU-3 (acute lymphoblastic leukemia), WT p53; experiment: Etoposide-induced cell death in EU-3; type: cell-based, human; conditions: EU-3 (FIG. 5b)
Description: as §1, §2

## COc1ccc([C@@]23Oc4cc(OC)cc(OC)c4[C@]2(O)[C@H](O)[C@H](C(=O)N(C)C)[C@H]3c2ccccc2)cc1 [Roc-A, (1R,2R,3S,3aR,8bS)-1,8b-dihydroxy-6,8-dimethoxy-3a-(4-methoxyphenyl)-N,N-dimethyl-3-phenyl-2,3-dihydro-1H-cyclopenta[b][1]benzofuran-2-carboxamide]
Peripheral blood T cells
  Drug-induced apoptosis (Teniposide, Doxorubicin, Bleomycin): reduces Teniposide-, Doxorubicin- and Bleomycin-induced apoptotic cell death in T cells; also recorded: could reduce drug-induced apoptosis in all cases
[1]
  Protection against Etoposide-induced cell death: did neither protect
[2]
  Protection against Etoposide-induced cell death: did neither protect
cardiomyocytes
  Protection against Etoposide-induced apoptosis: protected
[3]
  Protection against Etoposide-induced apoptosis: protected
[4]
  Protection against Etoposide-induced cell death: protected by Roc-A from Etoposide-induced cell death but to a lesser extent than non-malignant cells
non-malignant cells
  Change in cell death on increased Etoposide doses with Roc-A: only resulted in increased cell death in malignant cells
neutrophils
  Protection against Etoposide-induced apoptosis: protected
p53-knockdown T cells
  Etoposide-induced apoptosis in p53-knockdown cells: could still further down-regulate Etoposide-induced apoptosis in p53-knockdown cells
[5]
  Protection against Etoposide-induced cell death: protected
ERK
  Inhibitory effect on ERK activity / activation: inhibit ERK activation with different efficacies
[6]
  Protection against Etoposide-induced cell death: did neither protect
γ-H2AX
  Effect on Etoposide-induced γ-H2AX foci formation: does not prevent Etoposide-induced increase in γ-H2AX; also recorded: did not block Etoposide-induced γ-H2AX foci formation
[7]
  Protection against Etoposide-induced cell death: protected by Roc-A from Etoposide-induced cell death but to a lesser extent than non-malignant cells
